Consider six molecules from article PMC6787355, “Purification, kinetic characterization, and site-directed mutagenesis of Methanothermobacter thermautotrophicus RFAP Synthase Produced in Escherichia coli” (AIMS Microbiology, 2019).

The target in data set [1] is wild-type MTH0830 RFAP synthase (Methanothermobacter thermautotrophicus, UniProt O26918). Briefly: Isothermal titration calorimetry, wild-type enzyme. Format: binding. Conditions: ITC, 35 °C. As to the method:
(§1) The ITC conditions previously established for M. jannaschii RFAP synthase were modified for the RFAP synthase from M. thermautotrophicus. Partially purified wild-type (heat-treated at 65 °C) and variant (heat-treated at 50 °C) RFAP synthases (2–5 mL) were dialyzed against two changes of buffer (250 mL each of 50 mM Tris, 100 mM NaCl, pH 7.6). […] All ITC measurements were carried out using a NANO-ITC isothermal titration calorimeter (TA Instruments, New Castle, DE).
(§2) Following an 1800 s delay, 10 injections of 5 µL of PRPP each were added every 240 seconds with stirring at 300 rpm.
Background: ITC needs no label: the signal is the heat of the interaction.

Data set [2] addresses T1, MTH0830 RFAP synthase D19N variant (Methanothermobacter thermautotrophicus, UniProt O26918, D19N).
T1 sequence (O26918 1-329 D19N): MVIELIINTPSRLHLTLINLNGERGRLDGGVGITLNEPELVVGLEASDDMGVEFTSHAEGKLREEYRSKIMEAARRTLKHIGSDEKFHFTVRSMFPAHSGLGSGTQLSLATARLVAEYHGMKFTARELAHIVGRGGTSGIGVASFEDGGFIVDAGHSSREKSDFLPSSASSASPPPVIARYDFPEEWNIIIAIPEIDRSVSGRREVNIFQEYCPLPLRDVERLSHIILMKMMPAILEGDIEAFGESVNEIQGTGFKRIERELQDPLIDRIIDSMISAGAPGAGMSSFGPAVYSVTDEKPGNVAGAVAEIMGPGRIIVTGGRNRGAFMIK
Put plainly: Isothermal titration calorimetry, D19N variant. Format: binding. As to the method: as §1, §2

Data set [3] addresses T2, MTH0830 RFAP synthase R26K variant (Methanothermobacter thermautotrophicus, UniProt O26918, R26K).
T2 sequence (O26918 1-329 R26K): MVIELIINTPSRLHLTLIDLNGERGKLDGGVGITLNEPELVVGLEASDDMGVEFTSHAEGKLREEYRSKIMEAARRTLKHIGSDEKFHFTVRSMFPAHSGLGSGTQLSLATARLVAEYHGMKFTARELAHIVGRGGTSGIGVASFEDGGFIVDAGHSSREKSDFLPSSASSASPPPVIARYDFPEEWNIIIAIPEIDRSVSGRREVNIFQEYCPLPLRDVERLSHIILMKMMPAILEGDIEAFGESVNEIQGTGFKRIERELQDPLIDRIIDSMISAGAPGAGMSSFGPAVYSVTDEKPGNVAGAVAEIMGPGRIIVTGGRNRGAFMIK
Briefly: Isothermal titration calorimetry, R26K variant. Format: binding. As to the method:
as §1, §2

Data set [4] has as its target RFAP synthase from M. jannaschii. Also noted: method as in PMID 15262968. Conditions: read-out: binding constant (KD) for PRPP; cited from earlier work.
The target of data set [5] is T3, wild-type M. thermautotrophicus RFAP synthase (MTH0830) produced in E. coli (Methanothermobacter thermautotrophicus, UniProt O26918).
T3 sequence (O26918 1-329): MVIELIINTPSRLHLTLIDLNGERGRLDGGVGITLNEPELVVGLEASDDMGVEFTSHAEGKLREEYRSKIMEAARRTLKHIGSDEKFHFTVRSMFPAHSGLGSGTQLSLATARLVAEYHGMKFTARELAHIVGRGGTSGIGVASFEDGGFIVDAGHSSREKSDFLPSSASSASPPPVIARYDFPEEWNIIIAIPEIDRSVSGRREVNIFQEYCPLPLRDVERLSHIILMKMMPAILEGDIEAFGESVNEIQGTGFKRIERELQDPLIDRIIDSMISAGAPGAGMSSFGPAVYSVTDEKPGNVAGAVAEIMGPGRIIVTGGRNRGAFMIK
Briefly: RFAP synthase enzyme assay (azo-dye derivative of RFAP), wild-type recombinant enzyme. Particulars: for Vmax / Km: 8.8 mM PRPP; for Km: read-out: KM for pABA. The data set is classed as biochemical.

Data set [6] deals with RFAP synthase from M. thermophila. Conditions: read-out: apparent KM for pABA; cited from earlier work.
The test system of data set [7] is RFAP synthase from M. jannaschii. Also noted: method as in PMID 9698382, PMID 15262968. Particulars: read-out: apparent KM for pABA; cited from earlier work.
For data set [8] the following is noted: two acidic pKa values; cited from earlier work.
The target of data set [9] is Methanothermobacter thermautotrophicus β-ribofuranosylaminobenzene 5′-phosphate (RFAP) synthase, wild type, recombinant (Methanothermobacter thermautotrophicus). Put plainly: SEC; Superdex 75 gel filtration column in 50 mM TES, 150 mM KCl, 2 mM DTT, ambient temperature; enzyme eluted after 19 min, corresponding to 68.7 kDa; subunit size from SDS-PAGE.
Substrate in data set [10]: Nc1ccc(C(=O)O)cc1
Put plainly: purified protein, by the assay type.

Substrate in data set [11]: Nc1ccc(C(=O)O)cc1
Put plainly: RFAP synthase enzyme assay, R26K variant. The data set is classed as biochemical, Methanothermobacter thermautotrophicus. Conditions: other: 50 °C, 3 h, pH 6.8, 8.8 mM PRPP. As to the method:
RFAP synthase activity was determined by producing the azo-dye derivative of the product RFAP as described previously,[17]. […] From this point on, the amount of enzyme used in activity assays was within the linear range of 8 to 12 µg. […] All assays were carried out under optimal enzymatic conditions in 70 mM PIPES (pH 6.8), 2 mM DTT at 70 °C for 1 h.
Due to the inability of the variants to function at 70 °C, the enzymatic assays comparing variant and wild-type kinetics were run in 70 mM PIPES (pH 6.8) with 2 mM DTT at 50 °C for three hours using a single time-point assay. This is the time period over which the enzyme activities were linear at the lower temperature of 50 °C. For these kinetic studies, the wild-type enzyme was purified in the same manner as the variants and was also examined at 50 °C for three hours.

“And” between values parts separate entries of the source, which are not always exact repeats. Equal entries are not always repeated. Where two headings read alike, the source gives them in different places.

As a reminder, the Kd is a measure of binding affinity in units of concentration. Turning to `O=P(O)(O)OC[C@H]1OC(OP(=O)(O)OP(=O)(O)O)[C@H](O)[C@@H]1O` (some centres unmarked) [PRPP, phosphoribosyl-pyrophosphate], the Kd is 2100 ± 110 µM in data set [1] (read-out: KD for PRPP), 2000 ± 300 µM in data set [2], 2400 ± 250 µM in [3] and 2000 µM in [4].
The Vmax is the top rate of the reaction or transport when substrate is in excess. Broadly, the Km is the substrate concentration at which the rate is half of its maximum. Consider `Nc1ccc(C(=O)O)cc1` [pABA, p-aminobenzoic acid], for which the Vmax in data set [5] (50 °C, 3 h, pABA varied, partially purified) was 1.45 nmol/min/mg and 1.5 nmol/min/mg; in data set [5] (70 °C, pABA varied 181 µM to 36 mM), “approximately 190 nmol/min/mg protein”. Also, the “fold higher KM compared to previous homologs” value in [5] (near neutral conditions versus homologs with pH optimum at 5.3) stood at 26 fold. The Km in data set [5] (50 °C, 3 h, pH 6.8, partially purified without heat step) is 3.9 mM; in data set [5] (70 °C, pH 6.8, 1 h, 17.6 mM MgCl2, enzyme purified through Mono Q), 4.5 mM; in data set [6] it was 0.058 mM; in data set [7], 0.15 mM. Also, the Kd in data set [1] (in presence of saturating PRPP) worked out at 960 ± 650 µM. Besides, the “acidic pKa” value in [8] was 4.65 and 4.80.
The stoichiometry N is a count of units in the complex or per binding partner. For the molecule “Methanothermobacter thermautotrophicus β-ribofuranosylaminobenzene 5′-phosphate (RFAP) synthase, wild type, recombinant (enzyme)”, the stoichiometry N in data set [9] stood at 2.

B1: wild-type M. thermautotrophicus RFAP synthase (MTH0830) produced in E. coli (Methanothermobacter thermautotrophicus str. Delta H) (protein)
chain: MVIELIINTPSRLHLTLIDLNGERGRLDGGVGITLNEPELVVGLEASDDMGVEFTSHAEGKLREEYRSKIMEAARRTLKHIGSDEKFHFTVRSMFPAHSGLGSGTQLSLATARLVAEYHGMKFTARELAHIVGRGGTSGIGVASFEDGGFIVDAGHSSREKSDFLPSSASSASPPPVIARYDFPEEWNIIIAIPEIDRSVSGRREVNIFQEYCPLPLRDVERLSHIILMKMMPAILEGDIEAFGESVNEIQGTGFKRIERELQDPLIDRIIDSMISAGAPGAGMSSFGPAVYSVTDEKPGNVAGAVAEIMGPGRIIVTGGRNRGAFMIK
As to B1, the Michaelis-Menten constant (Km) in data set [10] (other: 50 °C, 3 h, pH 6.8, 8.8 mM PRPP, partially purified without heat step, 50.0 °C) is 3.9 mM; in data set [10] (other: 70 °C, pH 6.8, 1 h, 8.8 mM PRPP, 17.6 mM MgCl2, enzyme purified through Mono Q, 70.0 °C), 4.5 mM; in data set [10] (other: enzymatic assays, summary of Figure 3 and Table 2, pH 6.8), 4 mM.

B2: MTH0830 RFAP synthase R26K variant (Methanothermobacter thermautotrophicus str. Delta H; R26K) (protein)
chain: MVIELIINTPSRLHLTLIDLNGERGKLDGGVGITLNEPELVVGLEASDDMGVEFTSHAEGKLREEYRSKIMEAARRTLKHIGSDEKFHFTVRSMFPAHSGLGSGTQLSLATARLVAEYHGMKFTARELAHIVGRGGTSGIGVASFEDGGFIVDAGHSSREKSDFLPSSASSASPPPVIARYDFPEEWNIIIAIPEIDRSVSGRREVNIFQEYCPLPLRDVERLSHIILMKMMPAILEGDIEAFGESVNEIQGTGFKRIERELQDPLIDRIIDSMISAGAPGAGMSSFGPAVYSVTDEKPGNVAGAVAEIMGPGRIIVTGGRNRGAFMIK
For B2, in [11], the Km was 38 mM and the Vmax came out at 0.005 µmol/min/mg.

B3: MTH0830 RFAP synthase D19N variant (Methanothermobacter thermautotrophicus str. Delta H; D19N) (protein)
chain: MVIELIINTPSRLHLTLINLNGERGRLDGGVGITLNEPELVVGLEASDDMGVEFTSHAEGKLREEYRSKIMEAARRTLKHIGSDEKFHFTVRSMFPAHSGLGSGTQLSLATARLVAEYHGMKFTARELAHIVGRGGTSGIGVASFEDGGFIVDAGHSSREKSDFLPSSASSASPPPVIARYDFPEEWNIIIAIPEIDRSVSGRREVNIFQEYCPLPLRDVERLSHIILMKMMPAILEGDIEAFGESVNEIQGTGFKRIERELQDPLIDRIIDSMISAGAPGAGMSSFGPAVYSVTDEKPGNVAGAVAEIMGPGRIIVTGGRNRGAFMIK
Take B3: the Km in [10] (other: 50 °C, 3 h, pH 6.8, 8.8 mM PRPP) was 12 mM.
